Columns and labels:
Assay type in all cases: cell-based, human
[1] = test system: non-SEM-type gastric cancer cell line; assay: Cell viability drug screen, AUC summary over non-SEM-type lines; conditions: in the non-SEM-type gastric cancer cell line
[2] = test system: FU97; assay: Cell viability drug screen, 12-point dose-response AUC; parameters: Average Area Under the Viability Curve (AUC), AUC norm value: scale not given here; conditions: FU97 cells, 72 hours; for area under the viability curve (AUC), normalized: 12-point dose-response
Outline: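 Trapezoidal AUC of a 12-point, DMSO-normalized dose-response curve. Luminescent viability was measured after 72 h of exposure at 37° C to half-log serial dilutions (0.5% DMSO control), dosed 24 h after plating FU97 cells at 5×10^3 per well.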

[3] = test system: KATO3; assay: as above; conditions: KATO3 cells, 72 hours; for area under the viability curve (AUC), normalized: 12-point dose-response
Outline: (§1)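 Each cell line receives a twelve-point half-log titration of drug beginning 24 h after plating 5×10^3 cells per well. Following 72 h culture at 37 °C, luminescent signal is recorded and expressed versus vehicle. AUC is derived by the trapezoidal method.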

[4] = test system: SNU719; assay: as above; conditions: SNU719 cells, 72 hours; for area under the viability curve (AUC), normalized: 12-point dose-response
Outline: (§2)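 Luminescent viability readings, taken 15 min after reagent addition at room temperature, were normalized to the 0.5% DMSO control to build 12-point dose-response curves. Trapezoidal integration gave the AUC. Cells had been plated at 5×10^3 per well and then exposed to half-log dilutions for 72 h.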

[5] = test system: SNU1750; assay: as above; conditions: 72 hours; for area under the viability curve (AUC), normalized: SNU1750 cells, 12-point dose-response
Outline: as §1

[6] = test system: MKN45; assay: as above; conditions: 72 hours; for area under the viability curve (AUC), normalized: MKN45 cells, 12-point dose-response
Outline: as §2

[7] = test system: NCI_N87; assay: as above; conditions: NCI_N87 cells, 72 hours; for area under the viability curve (AUC), normalized: 12-point dose-response
Outline: as §1

[8] = test system: SNU16; assay: as above; conditions: SNU16 cells, 72 hours; for area under the viability curve (AUC), normalized: 12-point dose-response
Outline: as §1

[9] = test system: MKN74; assay: as above; conditions: MKN74 cells, 72 hours; for area under the viability curve (AUC), normalized: 12-point dose-response
Outline: as §2

[10] = test system: SNU1967; assay: as above; conditions: SNU1967 cells, 72 hours; for area under the viability curve (AUC), normalized: 12-point dose-response
Outline: as §1

[11] = test system: OCUM1; assay: as above; conditions: OCUM1 cells, 72 hours; for area under the viability curve (AUC), normalized: 12-point dose-response
Outline: as §1

[12] = test system: NCC24; assay: as above; conditions: NCC24 cells, 72 hours; for area under the viability curve (AUC), normalized: 12-point dose-response
Outline: as §1

[13] = test system: SNU638; assay: as above; conditions: SNU638 cells, 72 hours; for area under the viability curve (AUC), normalized: 12-point dose-response
Outline: as §1

[14] = test system: YCC3; assay: as above; conditions: YCC3 cells, 72 hours; for area under the viability curve (AUC), normalized: 12-point dose-response
Outline: as §1

[15] = test system: SNU620; assay: as above; conditions: SNU620 cells, 72 hours; for area under the viability curve (AUC), normalized: 12-point dose-response
Outline: as §1

[16] = test system: NCC59; assay: as above; conditions: NCC59 cells, 72 hours; for area under the viability curve (AUC), normalized: 12-point dose-response
Outline: as §1

[17] = test system: SNU668; assay: as above; conditions: 72 hours; for area under the viability curve (AUC), normalized: SNU668 cells, 12-point dose-response
Outline: as §1

[18] = test system: NCC20; assay: as above; conditions: NCC20 cells, 72 hours; for area under the viability curve (AUC), normalized: 12-point dose-response
Outline: as §1

[19] = test system: YCC2; assay: as above; conditions: YCC2 cells, 72 hours; for area under the viability curve (AUC), normalized: 12-point dose-response
Outline: as §1

[20] = test system: SK4; assay: as above; conditions: 72 hours; for area under the viability curve (AUC), normalized: SK4 cells, 12-point dose-response
Outline: as §1

[21] = test system: NCC19; assay: as above; conditions: NCC19 cells, 72 hours; for area under the viability curve (AUC), normalized: 12-point dose-response
Outline: as §1

[22] = test system: SNU601; assay: as above; conditions: SNU601 cells, 72 hours; for area under the viability curve (AUC), normalized: 12-point dose-response
Outline: as §1

[23] = test system: AGS; assay: as above; conditions: 72 hours; for area under the viability curve (AUC), normalized: AGS cells, 12-point dose-response
Outline: as §2

[24] = test system: Hs746T; assay: as above; conditions: 72 hours; for area under the viability curve (AUC), normalized: Hs746T cells, 12-point dose-response
Outline: as §1

[25] = test system: SNU484; assay: as above; conditions: 72 hours; for area under the viability curve (AUC), normalized: SNU484 cells, 12-point dose-response
Outline: as §1

[26] = test system: MKN1; assay: as above; conditions: MKN1 cells, 72 hours; for area under the viability curve (AUC), normalized: 12-point dose-response
Outline: as §1

[27] = test system: YCC11; assay: as above; conditions: 72 hours; for area under the viability curve (AUC), normalized: YCC11 cells, 12-point dose-response
Outline: as §1

[28] = test system: MKN28; assay: as above; conditions: MKN28 cells, 72 hours; for area under the viability curve (AUC), normalized: 12-point dose-response
Outline: as §1

[29] = test system: SNU1; assay: as above; conditions: SNU1 cells, 72 hours; for area under the viability curve (AUC), normalized: 12-point dose-response
Outline: as §1

[30] = test system: SNU216; assay: as above; conditions: 72 hours; for area under the viability curve (AUC), normalized: SNU216 cells, 12-point dose-response
Outline: as §2

[31] = test system: SEM-type gastric cancer cell line; assay: Cell viability drug screen, AUC summary over SEM-type lines
Experimental: An FDA-approved small-molecule pharmacological compound (#L1300) and an anticancer compound for research (#L2000) were purchased from Selecckchem and a 10 mM solution was prepared in DMSO. A total of 1,345 compounds were tested the cell viability of the seven EMT gastric cancer cell lines.
Cells cultured for cell-based drug assay were inoculated into a 96-well white optical plate (Corning) at 5×10^3 cells per well. After 24 hours after inoculation, a 2.5 MJT (primary screen) or a half-log 12-serial diluent (secondary screen) of the pharmacological compound contained in DMSO is added to the cells with a robot using a BioMek FXp liquid processor (Beckman) to add to the cells at 50 mM. The final drug concentration in the 5 ns range and the DMSO specification control (0.5%) were calculated. The cells were then further incubated at 37° C. in a 5% CO2 incubator for 72 hours prior to measuring cell viability using the extra-GLO assay kit (Promega). The luminescent properties were measured after 15 min incubation at room temperature using a plate stacker equipped with a plate stacker. The normalized viability for the DMSO-based control was measured to generate a cell line-specific 12-point dose-response curve for each pharmacological compound, and then the area under the curve (AUC) was calculated using a trapezoidal method.

SMILES: Cc1cnc(NC(=O)Nc2cc(Br)c(C)cc2OC[C@@H]2CNCCO2)cn1 [LY2603618]
- AUC value [1]: high
- area under the viability curve (AUC), normalized [2]: 0.7111
- area under the viability curve (AUC), normalized [3]: 1.256
- area under the viability curve (AUC), normalized [4]: 2.404
- area under the viability curve (AUC), normalized [5]: −0.4819
- area under the viability curve (AUC), normalized [6]: −0.9472
- area under the viability curve (AUC), normalized [7]: 0.8771
- area under the viability curve (AUC), normalized [8]: 1.467
- area under the viability curve (AUC), normalized [9]: −0.9084
- area under the viability curve (AUC), normalized [10]: −0.9616
- area under the viability curve (AUC), normalized [11]: −0.6831
- area under the viability curve (AUC), normalized [12]: −1.445
- area under the viability curve (AUC), normalized [13]: −0.05048
- area under the viability curve (AUC), normalized [14]: 0.2305
- area under the viability curve (AUC), normalized [15]: 0
- area under the viability curve (AUC), normalized [16]: 0.9326
- area under the viability curve (AUC), normalized [17]: 0.1713
- area under the viability curve (AUC), normalized [18]: 0.01673
- area under the viability curve (AUC), normalized [19]: 0.04045
- area under the viability curve (AUC), normalized [20]: −1.698
- area under the viability curve (AUC), normalized [21]: 1.2209
- area under the viability curve (AUC), normalized [22]: 0.2367
- area under the viability curve (AUC), normalized [23]: −0.3593
- area under the viability curve (AUC), normalized [24]: −0.107
- area under the viability curve (AUC), normalized [25]: 0.3141
- area under the viability curve (AUC), normalized [26]: −1.023
- area under the viability curve (AUC), normalized [27]: −2.027
- area under the viability curve (AUC), normalized [28]: −0.1902
- area under the viability curve (AUC), normalized [29]: −0.3399
- area under the viability curve (AUC), normalized [30]: 0.2462
- normalized viability AUC [31]: negative

SMILES: COCCn1c2c([n+](Cc3cnccn3)c1C)C(=O)c1ccccc1C2=O [YM155]
- AUC value [1]: high
- area under the viability curve (AUC), normalized [2]: 1.301
- area under the viability curve (AUC), normalized [3]: −0.3081
- area under the viability curve (AUC), normalized [4]: 3.789
- area under the viability curve (AUC), normalized [5]: −2.624
- area under the viability curve (AUC), normalized [6]: 0.6792
- area under the viability curve (AUC), normalized [7]: 0.4168
- area under the viability curve (AUC), normalized [8]: 2.497
- area under the viability curve (AUC), normalized [9]: −1.305
- area under the viability curve (AUC), normalized [10]: −0.2044
- area under the viability curve (AUC), normalized [11]: 1.685
- area under the viability curve (AUC), normalized [12]: −0.6903
- area under the viability curve (AUC), normalized [13]: 0.5099
- area under the viability curve (AUC), normalized [14]: 1.325
- area under the viability curve (AUC), normalized [15]: 1.29
- area under the viability curve (AUC), normalized [16]: 0.1386
- area under the viability curve (AUC), normalized [17]: −0.2961
- area under the viability curve (AUC), normalized [18]: 0
- area under the viability curve (AUC), normalized [19]: −0.4228
- area under the viability curve (AUC), normalized [20]: −1.314
- area under the viability curve (AUC), normalized [21]: 3.608
- area under the viability curve (AUC), normalized [22]: 1.661
- area under the viability curve (AUC), normalized [23]: −1.512
- area under the viability curve (AUC), normalized [24]: −1.376
- area under the viability curve (AUC), normalized [25]: −2.56
- area under the viability curve (AUC), normalized [26]: −2.0115
- area under the viability curve (AUC), normalized [27]: −1.419
- area under the viability curve (AUC), normalized [28]: −1.021
- area under the viability curve (AUC), normalized [29]: 1.212
- area under the viability curve (AUC), normalized [30]: 0.09958
- normalized viability AUC [31]: negative

SMILES: Cn1c(=O)n(-c2ccc(C(C)(C)C#N)cc2)c2c3cc(-c4cnc5ccccc5c4)ccc3ncc21 [BEZ235 (NVP-BEZ235), BEZ235]
- AUC value [1]: high
- Average Area Under the Viability Curve (AUC), AUC norm value [2]: −2.382
- Average Area Under the Viability Curve (AUC), AUC norm value [3]: 2.717
- Average Area Under the Viability Curve (AUC), AUC norm value [4]: 5.119
- Average Area Under the Viability Curve (AUC), AUC norm value ([5]; SNU1750 cells (SEM subtype)): −1.129
- Average Area Under the Viability Curve (AUC), AUC norm value ([6]; MKN45 cells (non-SEM subtype)): 1.887
- Average Area Under the Viability Curve (AUC), AUC norm value [7]: 0.7505
- Average Area Under the Viability Curve (AUC), AUC norm value [8]: −0.9859
- Average Area Under the Viability Curve (AUC), AUC norm value [9]: 0.02041
- Average Area Under the Viability Curve (AUC), AUC norm value [10]: −0.17
- Average Area Under the Viability Curve (AUC), AUC norm value [11]: −0.3719
- Average Area Under the Viability Curve (AUC), AUC norm value [12]: 0.08486
- Average Area Under the Viability Curve (AUC), AUC norm value [13]: 0.8979
- Average Area Under the Viability Curve (AUC), AUC norm value [14]: 0.9008
- Average Area Under the Viability Curve (AUC), AUC norm value [15]: −0.6893
- Average Area Under the Viability Curve (AUC), AUC norm value [16]: 2.997
- Average Area Under the Viability Curve (AUC), AUC norm value ([17]; SNU668 cells (SEM subtype)): 1.258
- Average Area Under the Viability Curve (AUC), AUC norm value [18]: −1.542
- Average Area Under the Viability Curve (AUC), AUC norm value [19]: 0.6403
- Average Area Under the Viability Curve (AUC), AUC norm value ([20]; SK4 cells (SEM subtype)): −3.142
- Average Area Under the Viability Curve (AUC), AUC norm value [21]: 0.9022
- Average Area Under the Viability Curve (AUC), AUC norm value [22]: 2.66
- Average Area Under the Viability Curve (AUC), AUC norm value ([23]; AGS cells (non-SEM subtype)): −1.768
- Average Area Under the Viability Curve (AUC), AUC norm value ([24]; Hs746T cells (SEM subtype)): −0.9926
- Average Area Under the Viability Curve (AUC), AUC norm value ([25]; SNU484 cells (SEM subtype)): 0
- Average Area Under the Viability Curve (AUC), AUC norm value [26]: −0.845
- Average Area Under the Viability Curve (AUC), AUC norm value ([27]; YCC11 cells (SEM subtype)): −2.698
- Average Area Under the Viability Curve (AUC), AUC norm value [28]: 2.007
- Average Area Under the Viability Curve (AUC), AUC norm value [29]: −1.128
- Average Area Under the Viability Curve (AUC), AUC norm value ([30]; SNU216 cells (non-SEM subtype)): −0.6351
- normalized viability AUC [31]: negative
